{"source": "patent US20260273020A1", "about": "“OBESTATIN FOR USE AS ANTINEOPLASTIC AGENT IN THE TREATMENT OF PANCREATIC CANCER” (SERVIZO GALEGO DE SAÚDE, priority 2023, published 2026)", "key": {"KPC FC1242 cells": {"tested_on": "KPC FC1242 cells", "test": "Proliferation assay, cell counting under chronic obestatin treatment", "assay_type": "cell-based, mouse", "experimental": "The murine pancreatic cancer cells KPC FC1242 were isolated from PDAC tumour tissues obtained from LSL-KrasG12D; LSL-Trp53R172H; Pdx1-Cre mice of a pure C57BL/6 background. This cell line was kindly donated by David A. Tuveson (Cold Spring Harbor Laboratory, Cold Spring Harbor, New York, US). KPC FC1242 were maintained in DMEN (Lonza, Basel, CH), and supplemented with 10% fetal bovine serum (FBS; Hyclone, GE Healthcare Life Sciences, South Logan, UT, US), 4.5 g/L glucose, 200 mg/L sodium pyruvate, 584 mg/L L-glutamine and 1% penicillin/streptomycin (Sigma-Aldrich, St. Louis, MO, US) and incubated in an atmosphere containing 5% CO2 at 37° C. These cells were periodically tested and resulted negative for mycoplasma contamination.\nFor the analysis of proliferation the cells were seeded on 12-well plates at an amount of 50,000 cells per well and maintained for 24 h in culture media (see above) to allow attachment. The medium was completely removed and replaced with serum-free media for additional 24 h. […] Twenty-four h after the last treatment, the cells were trypsinized and manually counted with a Neubauer camera.\nThe total cells were calculated using the following equations counting 10 squares: […]"}, "[1]": {"tested_on": "pNF-kB p65(S536), pSTAT3(S727)", "test": "Immunoblot of pancreatic tumors: NF-kB and STAT3", "assay_type": "in vivo, C57BL/6J mice", "conditions": "obestatin 500 nmol/Kg/72 h", "experimental": "FIG. 8. Immunoblot analysis of pNF-kB p65(S536), NF-kB p65, pSTAT3(Y705), pSTAT3(S727), and STAT3 in the pancreatic tumors of C57BL/6J mice (n=4) orthotopically injected with KPC FC1242 cells and treated with vehicle [NaCl, 0.9% (w/v)] or obestatin (500 nmol/Kg/72 h). Results are expressed as fold of control of the non-treated injected mice [control; mean±SE (*, P<0.05)].\nMice were weighed at set times over the 15-day period. The sterilized surgical material was used for the tissue extraction. Pancreases and muscles were carefully removed from each animal minimizing contamination with surrounding tissue or mouse hair. Pancreases and muscles were weighed. The skeletal muscles selected were: tibialis anterior, TA; extensor digitorum longus, EDL; gastrocnemius, GAST; soleus, SOL; and diaphragm, DIA. Pancreases were also measured with a scale (cm) and pictures were taken. • Histology—Pancreas samples for histology were fixed in 4% paraformaldehyde in PBS at room temperature overnight. After fixation, samples were dehydrated and embedded in paraffin blocks. For this study, 3-micron sections were cut from each block and placed on pre-cleaned slides (Thermo Fisher Scientific, Waltham, MA, USA). […] The lysates were clarified by centrifugation (18,000×g, 15 min, 4° C.), and the protein concentration was quantified by the Quantipro™ BCA assay kit (Sigma-Aldrich, St. Louis, MO, US). […]"}}, "data": [{"substance": "obestatin", "values": [{"measurement": "effect on FBS-mediated proliferation", "setting": "KPC FC1242 cells; 100 nM obestatin+10% FBS each 24 h for 72 h", "result": "significant inhibitory effect"}, {"measurement": "proliferation (number of cells)", "setting": "KPC FC1242 cells; mouse obestatin (SEQ ID NO: 4) 100 nM each 24 h for 72 h, serum-free", "result": "does not activate the proliferation"}, {"measurement": "downregulation of pNF-KB p65(S536)", "setting": "[1]", "result": "43.6±9.0", "unit": "%"}, {"measurement": "downregulation of pSTAT3(S727)", "setting": "[1]", "result": "52.3±12.4", "unit": "%"}]}]}
